pIC50: −log10 of the molar value.
How the values were obtained:
[1] = target: cIAP2-MALT1 fusion protein (Homo sapiens, UniProt Q9UDY8); assay: cell-based
[2] = target: C-domain of MALT1 (amino acids 329-824) (Homo sapiens (Human), UniProt Q9UDY8); assay: MALT1 biochemical assay (fluorescence lifetime enzyme activity assay); settings: 60 min pre-incubation, 2.5 nM enzyme, 1 μM peptide substrate
Protocol: The readout parameter is the increase of fluorescence lifetime over time, proportional to enzyme activity.
The assay employs a short peptide substrate labeled with the single fluorophore PT14 as a fluorescence lifetime probe sensitive to the cleavage state of the substrate (PT14: 6-(9-oxo-9H-acridin-10-yl)-hexanoate, AssayMetrics, UK). […] The assay buffer consists of 200 mM Tris/HCl at pH 7.5, 0.8 M Na citrate, 100 μM EGTA, 100 μM DTT and 0.05% (w/v) CHAPS. […] Test compounds were dissolved in 100% (v/v) DMSO or a mixture containing 90% (v/v) DMSO and 10% (v/v) H2O at a stock concentration of 100 mM. Serial dilutions of test compounds were prepared using either 100% (v/v) DMSO or a mixture containing 90% (v/v) DMSO and 10% (v/v) H2O.

Human IL2 promoter = Human IL2 promoter reporter gene assay (RGA) in Jurkat cells; format: cell-based; settings: Jurkat clone K22 290_H23, anti-CD28 mAb + PMA stimulation 5.5 h
Protocol: Human IL2 Promoter Reporter Gene Assay (RGA) in Jurkat Cells
The transfected Jurkat clone K22 290_H23 was propagated in RPMI 1640 supplemented with 10% heat inactivated fetal calf serum, 50 μM 2-mercaptoethanol and 1 mg/ml Geneticin. The cell concentration should not exceed 1×10e6/ml during culturing. The cells should not exceed passage 30. Prior to the assay the cells were washed and prepared to the concentration of 2×10e6 cells/ml.
Compound dilutions were made as 2×-concentrated solutions then diluted 1/2 by addition to cells. Two hundred and fifty μl of compound dilution and 250 μl of cells were mixed together in wells of a 96-deep well plate. Cells/compounds premix were incubated 30 min at 37° C. and 5% CO2 directly in the deep well plate.
After pre-incubation of cells with compounds, cells were stimulated with anti-CD28 mAb (clone 15E8) at 3 μg/ml+PMA at 1 μg/ml. Both co-stimulants were diluted in culture medium at a 10×-concentrated solution. 10 μl of co-stimulants were pipetted into the white 96-well plates and 100 μl of cell/compound mix was immediately added in duplicates. The cells were stimulated for 5.5 h at 37° C. and 5% CO2.
After cell stimulation, 50 μl of BriteLitePlus reagent (Perkin Elmer) was added to each well and the bioluminescence was measured with a Wallac EnVision reader (Perkin Elmer).

cIAP2-MALT1 fusion protein, sequence (Q9UDY8 2-824 limits assumed): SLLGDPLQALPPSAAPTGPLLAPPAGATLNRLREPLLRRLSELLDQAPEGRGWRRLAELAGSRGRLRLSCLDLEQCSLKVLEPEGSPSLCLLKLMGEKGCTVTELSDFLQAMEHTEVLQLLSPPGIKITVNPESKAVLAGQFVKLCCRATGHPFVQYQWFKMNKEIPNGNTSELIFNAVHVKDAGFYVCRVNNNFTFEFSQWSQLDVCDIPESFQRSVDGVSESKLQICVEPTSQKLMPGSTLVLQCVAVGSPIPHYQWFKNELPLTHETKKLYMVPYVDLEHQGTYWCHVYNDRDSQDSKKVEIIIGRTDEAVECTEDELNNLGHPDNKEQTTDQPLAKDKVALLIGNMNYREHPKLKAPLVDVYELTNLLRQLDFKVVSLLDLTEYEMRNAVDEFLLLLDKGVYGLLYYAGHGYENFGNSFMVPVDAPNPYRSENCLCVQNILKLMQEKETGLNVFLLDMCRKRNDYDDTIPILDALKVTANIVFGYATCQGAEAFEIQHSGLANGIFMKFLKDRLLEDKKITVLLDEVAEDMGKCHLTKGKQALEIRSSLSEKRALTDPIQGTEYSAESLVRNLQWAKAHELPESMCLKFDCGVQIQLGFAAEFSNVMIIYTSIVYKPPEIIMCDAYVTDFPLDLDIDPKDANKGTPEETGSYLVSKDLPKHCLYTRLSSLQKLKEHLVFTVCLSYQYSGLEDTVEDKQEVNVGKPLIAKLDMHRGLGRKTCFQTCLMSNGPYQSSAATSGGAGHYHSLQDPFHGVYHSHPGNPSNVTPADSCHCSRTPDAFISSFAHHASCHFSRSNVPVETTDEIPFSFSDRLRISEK
C-domain of MALT1 (amino acids 329-824), sequence (Q9UDY8 329-824): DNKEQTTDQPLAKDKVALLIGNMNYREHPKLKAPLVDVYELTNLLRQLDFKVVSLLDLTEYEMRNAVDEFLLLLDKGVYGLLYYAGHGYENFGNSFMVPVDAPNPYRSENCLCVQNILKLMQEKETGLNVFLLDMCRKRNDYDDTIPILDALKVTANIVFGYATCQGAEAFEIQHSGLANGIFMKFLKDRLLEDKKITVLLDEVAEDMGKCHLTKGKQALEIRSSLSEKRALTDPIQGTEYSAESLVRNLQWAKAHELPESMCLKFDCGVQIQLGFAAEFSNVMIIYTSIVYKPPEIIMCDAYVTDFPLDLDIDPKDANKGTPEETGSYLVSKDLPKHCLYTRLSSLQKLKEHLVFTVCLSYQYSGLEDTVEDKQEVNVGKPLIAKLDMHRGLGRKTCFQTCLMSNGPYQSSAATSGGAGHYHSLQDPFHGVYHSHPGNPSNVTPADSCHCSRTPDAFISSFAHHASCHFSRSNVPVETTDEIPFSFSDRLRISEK

Row | Structure (SMILES) | pIC50 [1] | pIC50 [2] | pIC50 (Human IL2 promoter)
1 | Cc1cc(CO)nn1-c1ccc(NC(=O)Nc2cnc3cc(Cl)nn3c2C(C)C)cc1Cl [Example 28, 1-(3-chloro-4-(3-(hydroxymethyl)-5-methyl-1H-pyrazol-1-yl)phenyl)-3-(2-chloro-7-isopropylpyrazolo[1,5-a]pyrimidin-6-yl)urea] | 6.67 |  | 
2 | COc1cc(NC(=O)Nc2cnc3cc(Cl)nn3c2[C@H](C)OC)cnc1-n1nccn1 [Example 11, (S)-1-(2-chloro-7-(1-methoxyethyl)pyrazolo[1,5-a]pyrimidin-6-yl)-3-(5-methoxy-6-(2H-1,2,3-triazol-2-yl)pyridin-3-yl)urea] | 6.79 | 7.72 | 
3 | CC(C)(C)OC(=O)N1CCOC(c2c(NC(=O)Nc3cnc(-n4nccn4)c(Cl)c3)cnc3cc(Cl)nn23)C1 (centres unmarked) [Example 66, tert-butyl 2-(2-chloro-6-(3-(5-chloro-6-(2H-1,2,3-triazol-2-yl)pyridin-3-yl)ureido)pyrazolo[1,5-a]pyrimidin-7-yl)morpholine-4-carboxylate] | 6.62 |  | 
4 | CC1(c2c(NC(=O)Nc3ccnc(C(F)(F)F)c3)cnc3cc(Cl)nn23)CCCO1 (centres unmarked) [Example 36, 1-(2-chloro-7-(2-methyltetrahydrofuran-2-yl)pyrazolo[1,5-a]pyrimidin-6-yl)-3-(2-(trifluoromethyl)pyridin-4-yl)urea] | 6.74 | 8.05 | 
5 | CN(C)C(=O)c1c(NC(=O)Nc2cnc(-n3nccn3)c(Cl)c2)cnc2cc(Cl)nn12 [Example 70, 2-chloro-6-(3-(5-chloro-6-(2H-1,2,3-triazol-2-yl)pyridin-3-yl)ureido)-N,N-dimethylpyrazolo[1,5-a]pyrimidine-7-carboxamide] | 6.05 | 6.91 | 
6 | C[C@@H](OCc1ccccc1)c1c(NC(=O)Nc2cnc(-n3nccn3)c(C(F)(F)F)c2)cnc2cc(Cl)nn12 [Example 65, (R)-1-(6-(2H-1,2,3-triazol-2-yl)-5-(trifluoromethyl)pyridin-3-yl)-3-(7-(1-(benzyloxy)ethyl)-2-chloropyrazolo[1,5-a]pyrimidin-6-yl)urea] | 6.39 | 8.05 | 
7 | COc1ncc(NC(=O)Nc2cnc3cc(Cl)nn3c2C2C3COCC32)cc1Cl (centres unmarked) [Example 67, 1-(7-(3-oxabicyclo[3.1.0]hexan-6-yl)-2-chloropyrazolo[1,5-a]pyrimidin-6-yl)-3-(5-chloro-6-methoxypyridin-3-yl)urea] | 6.26 | 7.46 | 
8 | CC(C)OCc1c(NC(=O)Nc2cnc(-n3nccn3)c(Cl)c2)cnc2cc(Cl)nn12 [Example 61, 1-(5-chloro-6-(2H-1,2,3-triazol-2-yl)pyridin-3-yl)-3-(2-chloro-7-(isopropoxymethyl)pyraozlo[1,5-a]pyrimidin-6-yl)urea] | 6.43 | 7.72 | 
9 | COCC1(c2c(NC(=O)Nc3cnc(-n4nccn4)c(Cl)c3)cnc3cc(Cl)nn23)CCC1 [Example 50, 1-(5-chloro-6-(2H-1,2,3-triazol-2-yl)pyridin-3-yl)-3-(2-chloro-7-(1-(methoxymethyl)cyclobutyl)pyrazolo[1,5-a]pyrimidin-6-yl)urea] | 6.64 | 7.70 | 
10 | COCCO[C@H](C)c1c(NC(=O)Nc2cnc(-n3nccn3)c(Cl)c2)cnc2cc(Cl)nn12 [Example 42, (R)-1-(5-chloro-6-(2H-1,2,3-triazol-2-yl)pyridin-3-yl)-3-(2-chloro-7-(1-(2-methoxyethoxy)ethyl)pyrazolo[1,5-a]pyrimidin-6-yl)urea] | 6.42 | 7.68 | 
11 | CN[C@@H](C)c1c(NC(=O)Nc2cnc(-n3nccn3)c(Cl)c2)cnc2cc(Cl)nn12 [Example 119, (S)-1-(5-chloro-6-(2H-1,2,3-triazol-2-yl)pyridin-3-yl)-3-(2-chloro-7-(1-(methylamino)ethyl)pyrazolo[1,5-a]pyrimidin-6-yl)urea] | 6.80 |  | 
12 | Cn1ccnc1-c1c(NC(=O)Nc2cnc(-n3nccn3)c(Cl)c2)cnc2cc(Cl)nn12 [Example 86, 1-(5-chloro-6-(2H-1,2,3-triazol-2-yl)pyridin-3-yl)-3-(2-chloro-7-(1-methyl-1H-imidazol-2-yl)pyrazolo[1,5-a]pyrimidin-6-yl)urea] | 6.24 |  | 
13 | CN(C)C1(c2c(NC(=O)Nc3cnc(-n4nccn4)c(C(F)(F)F)c3)cnc3cc(Cl)nn23)CC1 [Example 107, 1-(6-(2H-1,2,3-triazol-2-yl)-5-(trifluoromethyl)pyridin-3-yl)-3-(2-chloro-7-(1-(dimethylamino)cyclopropyl)pyrazolo[1,5-a]pyrimidin-6-yl)urea] |  | 7.89 | 7.22
14 | CO[C@@H](C)c1c(NC(=O)Nc2ccnc(C(F)(F)F)c2)cnc2cc(F)nn12 [Example 7, (S)-1-(2-fluoro-7-(1-methoxyethyl)pyrazolo[1,5-a]pyrimidin-6-yl)-3-(2-(trifluoromethyl)pyridin-4-yl)urea] |  | 8.10 | 7.52

The remaining lines, values ahead:

Row | pIC50 [1] | pIC50 [2] | pIC50 (Human IL2 promoter) | Structure (SMILES)
15 | 6.54 | 8.30 |  | CC1(c2c(NC(=O)Nc3cnc(-n4nccn4)c(Cl)c3)cnc3cc(Cl)nn23)CCOCC1 [Example 55, 1-(5-chloro-6-(2H-1,2,3-triazol-2-yl)pyridin-3-yl)-3-(2-chloro-7-(4-methyltetrahydro-2H-pyran-4-yl)pyrazolo[1,5-a]pyrimidin-6-yl)urea]
16 | 7.22 | 8.52 |  | COCCO[C@@H](C)c1c(NC(=O)Nc2cnc(-n3nccn3)c(Cl)c2)cnc2cc(Cl)nn12 [Example 39, (S)-1-(5-chloro-6-(2H-1,2,3-triazol-2-yl)pyridin-3-yl)-3-(2-chloro-7-(1-(2-methoxyethoxy)ethyl)pyrazolo[1,5-a]pyrimidin-6-yl)urea]
17 | 7.21 | 8.22 |  | CO[C@@H](c1c(NC(=O)Nc2cnc(-n3nccn3)c(C(F)(F)F)c2)cnc2cc(Cl)nn12)C(C)C [Example 4, (R)-1-(6-(2H-1,2,3-triazol-2-yl)-5-(trifluoromethyl)pyridin-3-yl)-3-(2-chloro-7-(1-methoxy-2-methylpropyl)pyrazolo[1,5-a]pyrimidin-6-yl)urea]
18 | 6.72 | 8.30 |  | CO[C@H](C)CO[C@@H](C)c1c(NC(=O)Nc2cnc(-n3nccn3)c(Cl)c2)cnc2cc(Cl)nn12 [Example 85, 1-(5-chloro-6-(2H-1,2,3-triazol-2-yl)pyridin-3-yl)-3-(2-chloro-7-((S)-1-((R)-2-methoxypropoxy)ethyl)pyrazolo[1,5-a]pyrimidin-6-yl)urea]
19 | 7.23 | 8.52 |  | COC(c1ccccc1)c1c(NC(=O)Nc2cnc(-n3nccn3)c(Cl)c2)cnc2cc(Cl)nn12 (centres unmarked) [Example 49, 1-(5-chloro-6-(2H-1,2,3-triazol-2-yl)pyridin-3-yl)-3-(2-chloro-7-(methoxy(phenyl)methyl)pyrazolo[1,5-a]pyrimidin-6-yl)urea]
20 |  | 8.30 | 7.30 | C[C@H](OC[C@@H]1CCOC1)c1c(NC(=O)Nc2cnc(-n3nccn3)c(Cl)c2)cnc2cc(Cl)nn12 [Example 103, 1-(5-chloro-6-(2H-1,2,3-triazol-2-yl)pyridin-3-yl)-3-(2-chloro-7-((S)-1-(((R)-tetrahydrofuran-3-yl)methoxy)ethyl)pyrazolo[1,5-a]pyrimidin-6-yl)urea]
21 |  | 8.70 | 7.62 | Cc1cc2ncc(NC(=O)Nc3cnc(-n4nccn4)c(Cl)c3)c(C3(C)CCCO3)n2n1 (centres unmarked) [Example 104, 1-(5-chloro-6-(2H-1,2,3-triazol-2-yl)pyridin-3-yl)-3-(2-methyl-7-(2-methyltetrahydrofuran-2-yl)pyrazolo[1,5-a]pyrimidin-6-yl)urea]
22 |  | 8.70 | 7.80 | CO[C@@H](C)c1c(NC(=O)Nc2cnc(-n3nccn3)c(C(F)(F)F)c2)cnc2cc(F)nn12 [Example 94, (S)-1-(6-(2H-1,2,3-triazol-2-yl)-5-(trifluoromethyl)pyridin-3-yl)-3-(2-fluoro-7-(1-methoxyethyl)pyrazolo[1,5-a]pyrimidin-6-yl)urea]
23 |  | 9.00 | 6.80 | CO[C@@H](C)c1c(NC(=O)Nc2cnc(OC(F)F)c(Cl)c2)cnc2cc(Cl)nn12 [Example 93, (S)-1-(5-chloro-6-(difluoromethoxy)pyridin-3-yl)-3-(2-chloro-7-(1-methoxyethyl)pyrazolo[1,5-a]pyrimidin-6-yl)urea]
24 |  | 8.10 | 7.28 | COCC(OC)c1c(NC(=O)Nc2cnc(-n3nccn3)c(C(F)(F)F)c2)cnc2cc(Cl)nn12 (centres unmarked) [Example 108, 1-(6-(2H-1,2,3-triazol-2-yl)-5-(trifluoromethyl)pyridin-3-yl)-3-(2-chloro-7-(1,2-dimethoxyethyl)pyrazolo[1,5-a]pyrimidin-6-yl)urea]
